Measured values as given in PMC10447463, “Data-mining unveils structure–property–activity correlation of viral infectivity enhancing self-assembling peptides” (Nature Communications, 2023).
Where two headings read alike, the source gives them in different places.

What was measured:
[1] = Turbidity, derived count rate of scattered light; format: physicochemical; settings: for Count Rate: derived count rate of scattered light (turbidity); for Log10 Count Rate: turbidity, derived count rate of scattered light, data of Figure 2D
[2] = format: physicochemical; set-up: key to Fibril / Fibril Formation / TEM 2cat / Fibril: 1 = fibrils present; 0 non-fibrillar structures; settings: for Fibril / Fibril Formation: 1 mg/mL, uranyl acetate stain, qualitative
[3] = Turbidity, derived count rate of scattered light; format: physicochemical; settings: for Count Rate / kcps: derived count rate of scattered light at 633 nm, 173°, from zeta-potential measurement, 0.1 mg/mL in 1 mM KCl after 1 d at 1 mg/mL in PBS, turbidity / microscopic aggregation, mean of triplicate; for Zeta Count Rate: peptides with TEM 2cat 0
Method in brief: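 Samples: 1 mg/mL in PBS pH 7.4 (from DMSO), 1 d at RT, then diluted in 1 mM KCl immediately before measurement. Triplicates, two independent runs averaged.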

[4] = Zeta-potential measurement; format: physicochemical; settings: for Zeta pot. / mV: 1 mg/mL in PBS pH 7.4 from 10 mg/mL DMSO stock, 1 d RT, 60 µL diluted in 600 µL 1 mM KCl, Zetasizer Nano ZS, Smoluchowski, mean of triplicate
Method in brief: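 Readout: zeta potential (mV) derived by Smoluchowski from measured electrophoretic mobility. Preformed aggregates (1 mg/mL peptide, PBS pH 7.4, RT for 1 d) were diluted into dilute KCl electrolyte (1 mM) shortly before analysis.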

[5] = Fig S10 panel D, fibril category by TEM
[6] = FigS12 panel A, fibril category by TEM
[7] = TEM, 1 = fibrils present, 0 = non-fibrillar
[8] = TEM, 1 = fibrils present, 0 = non-fibrillar structures
[9] = Log10 of derived count rate of scattered light (turbidity)
[10] = log10 of derived count rate of scattered light (turbidity)
[11] = logarithm of count rate in kcps
[12] = turbidity, Log10 of derived count rate of scattered light, Figure 3A source data
[13] = zeta-potential of peptide, source data of Figure 2C
[14] = zeta-potential of the peptide assemblies, mean, Figure 3A source data
[15] = category: fibrils present or non-fibrillar
[16] = zeta potential of peptide assemblies
[17] = turbidity, log10 of derived count rate of scattered light

Row | Substance | Count Rate [1] | Log10 Count Rate [1] | TEM 2cat [2, 5] | TEM 2cat [2, 6] | Fibril ([2]; FigS12 panel B, TEM) | Fibril / Fibril Formation ([2]; TEM) | Fibril [2, 7] | Fibril [2, 8] | Log10 Count Rate [3, 9] | Count Rate / kcps [3] | Log10 Count Rate [3, 10] | Log10 Count Rate [3, 12] | Zeta-Pot. [4] | Zeta-Potential / mV [4, 13] | Zeta-Potential / mV [4, 14] | TEM 2cat [2, 15] | Zeta-Pot. [4, 16] | other results
1 | KIKIQINMWQRGD | 2783 | 3.445 | 0 | 0 | 0 | 0 | 0 | 0 | 3.445 | 2783 kcps | 3.445 | 3.445 | 1.69 | -0.495 mV | 1.69 mV | – | – | Log10 Count Rate [3, 11]: 3.4; Zeta pot. / mV [4]: 1.7 mV
2 | KIKIQINMWWQ | 3893 | 3.59 | 0 | – | – | 0 | 0 | 0 | 3.59 | 3893 kcps | 3.59 | 3.59 | 11.8 | 13.17 mV | 11.8 mV | 0 | – | Zeta Count Rate [3]: 3893 kcp
3 | KIKIQINMWWWQ | 7596.3 | 3.8806 | 0 | – | – | 0 | 0 | 0 | 3.8806 | 7596 kcps | 3.8806 | 3.8806 | 9.45 | 9.633 mV | 9.45 mV | 0 | – | Zeta Count Rate [3]: 7596 kcp
4 | KIKIQIRGD | 114 | 2.057 | 1 | 1 | 1 | 1 | 1 | 1 | 2.057 | 114 kcps | 2.057 | 2.057 | – | 4.47 mV | 6.43 mV | – | 6.43 | –
5 | KIKIQIW | 144.9 | 2.161 | 1 | – | – | 1 | 1 | 1 | 2.161 | 145 kcps | 2.161 | 2.161 | 12.5 | 11.255 mV | 12.5 mV | 1 | – | –
6 | KIKQII | 122 | 2.086 | 0 | 0 | 0 | 0 | 0 | 0 | 2.086 | 122 kcps | 2.086 | 2.086 | – | -6.459 mV | -12.67 mV | – | -12.67 | Fibril ([2]; Fig S10 panel E): 0
7 | KLKLKLQL | 42.87 | 1.632 | 1 | 1 | 1 | 1 | 1 | 1 | 1.632 | 43 kcps | 1.632 | 1.632 | – | 8.477 mV | 8.39 mV | – | 8.39 | –
8 | KLKLQLL | 72.67 | 1.861 | 1 | 1 | 1 | 1 | 1 | 1 | 1.861 | 73 kcps | 1.861 | 1.861 | – | -3.1875 mV | -4.93 mV | – | -4.93 | –
9 | KVKVQVV | 27.73 | 1.443 | 0 | 0 | 0 | 0 | 0 | 0 | 1.443 | 28 kcps | 1.443 | 1.443 | – | -4.675 mV | -7.92 mV | – | -7.92 | –
10 | KVKVQVVV | 163.1 | 2.213 | 1 | 1 | 1 | 1 | 1 | 1 | 2.213 | 163 kcps | 2.213 | 2.213 | – | 1.657 mV | 0.15 mV | – | 0.147 | –
11 | MKIKIQINM | 981.3 | 2.9918 | 1 | – | – | 1 | 1 | 1 | 2.9918 | 981 kcps | 2.9918 | 2.9918 | – | 9.332 mV | 9.13 mV | 1 | 9.13 | –
12 | MKIKIQINMWQ | 1475 | 3.169 | 1 | – | – | 1 | 1 | 1 | 3.169 | 1475 kcps | 3.169 | 3.169 | – | 11.2 mV | 10.8 mV | 1 | 10.8 | –
13 | QCKAKAQANM | 204.1 | 2.31 | – | 0 | 0 | 0 | 0 | 0 | 2.31 | 204 kcps | – | 2.31 | -8.357 | -4.641 mV | -8.36 mV | – | – | TEM 2cat ([2]; Fig S10 panel D): 0; Fibril ([2]; Fig S10 panel E): 0; Log10 Count Rate [3, 11]: 2.3; Log10 Count Rate [3, 17]: 2.31; Zeta pot. / mV [4]: -8.4 mV
14 | QCKAKAQANMWQ | 427.5 | 2.631 | – | 0 | 0 | 0 | 0 | 0 | 2.631 | 428 kcps | – | 2.631 | -8.05 | -4.813 mV | -8.05 mV | – | – | TEM 2cat ([2]; Fig S10 panel D): 0; Fibril ([2]; Fig S10 panel E): 0; Log10 Count Rate [3, 11]: 2.6; Log10 Count Rate [3, 17]: 2.631; Zeta pot. / mV [4]: -8.1 mV
15 | QCKFKQFF | 225.4 | 2.353 | – | 1 | 1 | 1 | 1 | 1 | 2.353 | 225 kcps | – | 2.353 | 4.94 | 3.089 mV | 4.94 mV | – | – | TEM 2cat ([2]; Fig S10 panel D): 1; Log10 Count Rate [3, 17]: 2.353
16 | QCKFKQFFNM | 10384.7 | 4.016 | – | – | – | 1 | 1 | 1 | 4.016 | 10385 kcps | – | 4.016 | 13.67 | 15.12 mV | 13.67 mV | 1 | – | TEM 2cat ([2]; Fig S10 panel D): 1; Fibril ([2]; Fig S10 panel E): 1; Log10 Count Rate [3, 17]: 4.016
17 | QCKFKQFFNMWQ | 18911.36667 | 4.277 | – | – | – | 1 | 1 | 1 | 4.277 | 18911 kcps | – | 4.277 | 9.587 | 11.04 mV | 9.59 mV | 1 | – | TEM 2cat ([2]; Fig S10 panel D): 1; Fibril ([2]; Fig S10 panel E): 1; Log10 Count Rate [3, 17]: 4.277
